{
  "source": "patent US20110039763A1",
  "about": "“TARGETED ANTIMICROBIAL MOIETIES” (C3 JIAN, INC., priority 2009, published 2011)",
  "tested_on": "microorganisms",
  "assay": "Targeting peptide binding to target microorganisms (Tables 3, 10, 12)",
  "details": "for Target(s): microorganism(s) the targeting peptide binds, preferably 1x PBS",
  "key": {"[1]": {"details": "binding in aqueous buffers that varied with peptide solubility"}, "[2]": {"details": "binding in aqueous buffers varied with peptide solubility"}},
  "note": "Entries after “also recorded” stand apart in the source; their conditions may differ. Square brackets hold non-standard residues; d marks the D form. Ends that are not written are not given here. dOrn = NCCC[C@@H](N)C(=O)O",
  "data": [
    {"substance": "1T-239 (ADDLLNKRLTDLIMENAETVKTIDLDNSD; Peptide with targeting and/or antimicrobial activity)", "values": [
      {"measurement": "Target(s)", "setting": "[1]", "result": "A. naeslundii; also recorded: S. gordonii; also recorded: S. mitis; also recorded: S. mutans; also recorded: S. oralis; also recorded: S. sanguinis"}
    ]},
    {"substance": "1T-242 (KQVQNTTLIICGTVLLGILFKSYLKSQKSV; Peptide with targeting and/or antimicrobial activity)", "values": [
      {"measurement": "Target(s)", "setting": "[1]", "result": "F. nucleatum; also recorded: S. sanguinis"}
    ]},
    {"substance": "1T-248 (IGGALNSCG; Peptide with targeting and/or antimicrobial activity)", "values": [
      {"measurement": "Target(s)", "setting": "[1]", "result": "S. sanguinis"}
    ]},
    {"substance": "1T-249 (VFSVLKHTTWPTRKQSWHDFISILEYSAFFALVIFIFDKLLTLGLAELLKRF; Peptide with targeting and/or antimicrobial activity)", "values": [
      {"measurement": "Target(s)", "setting": "[1]", "result": "F. nucleatum; also recorded: S. sanguinis"}
    ]},
    {"substance": "1T-250 (LVQGDTILIENHVGTPVKDDGKDCLIIREADVLAVVND; Peptide with targeting and/or antimicrobial activity)", "values": [
      {"measurement": "Target(s)", "setting": "[1]", "result": "S. mitis; also recorded: S. mutans; also recorded: S. oralis"}
    ]},
    {"substance": "1T-252 (MKKNLKRFYALVLGFIIGCLFVSILIFIGY; Peptide with targeting and/or antimicrobial activity)", "values": [
      {"measurement": "Target(s)", "setting": "[1]", "result": "F. nucleatum; also recorded: S. sanguinis"}
    ]},
    {"substance": "1T-256 (KGKSLMPLLKQINQWGKLYL; Peptide with targeting and/or antimicrobial activity)", "values": [
      {"measurement": "Target(s)", "setting": "[1]", "result": "S. sanguinis"}
    ]},
    {"substance": "1T-258 (TINIDDKVLDYLKKINSKAITIDLIGCAS; Peptide with targeting and/or antimicrobial activity)", "values": [
      {"measurement": "Target(s)", "setting": "[1]", "result": "A. naeslundii; also recorded: F. nucleatum; also recorded: P. gingivalis; also recorded: T. denticola; also recorded: S. mitis; also recorded: S. mutans; also recorded: S. oralis"}
    ]},
    {"substance": "1T-259 (EKLKKILLKLAVCGKAWYTL; Peptide with targeting and/or antimicrobial activity)", "values": [
      {"measurement": "Target(s)", "setting": "[1]", "result": "F. nucleatum; also recorded: P. gingivalis; also recorded: T. denticola; also recorded: S. mitis; also recorded: S. mutans; also recorded: S. oralis; also recorded: S. sanguinis"}
    ]},
    {"substance": "1T-260 (NILYFIHDENQWEPQKAEIFRGSIKHCAWLSS; Peptide with targeting and/or antimicrobial activity)", "values": [
      {"measurement": "Target(s)", "setting": "[1]", "result": "A. naeslundii; also recorded: P. gingivalis; also recorded: S. epidermidis; also recorded: S. gordonii; also recorded: S. mitis; also recorded: S. mutans; also recorded: S. oralis; also recorded: S. sanguinis"}
    ]},
    {"substance": "1T-261 (SFEKNKIENNLKIAQAYIYIKPKPRICQA; Peptide with targeting and/or antimicrobial activity)", "values": [
      {"measurement": "Target(s)", "setting": "[1]", "result": "F. nucleatum; also recorded: S. mutans; also recorded: S. oralis; also recorded: S. sanguinis"}
    ]},
    {"substance": "1T-264 (LEGKFYMAEDFDKTPECFKDYV; Peptide with targeting and/or antimicrobial activity)", "values": [
      {"measurement": "Target(s)", "setting": "[1]", "result": "S. sanguinis"}
    ]},
    {"substance": "1T-266 (RAGTWLVVDEIR; Peptide with targeting and/or antimicrobial activity)", "values": [
      {"measurement": "Target(s)", "setting": "[1]", "result": "S. sanguinis"}
    ]},
    {"substance": "1T-267 (RIKEERKNRSYKFFIWRLFDEKTGFI; Peptide with targeting and/or antimicrobial activity)", "values": [
      {"measurement": "Target(s)", "setting": "[1]", "result": "A. naeslundii; also recorded: F. nucleatum; also recorded: P. gingivalis; also recorded: T. denticola; also recorded: S. mitis; also recorded: S. mutans; also recorded: S. oralis; also recorded: S. sanguinis"}
    ]},
    {"substance": "1T-268 (PITPKKEKCGLGTYAPKNPVFSKSRV; Peptide with targeting and/or antimicrobial activity)", "values": [
      {"measurement": "Target(s)", "setting": "[1]", "result": "F. nucleatum; also recorded: S. mutans; also recorded: S. oralis; also recorded: S. sanguinis"}
    ]},
    {"substance": "1T-269 (PLYVAAVEKINTAKKH; Peptide with targeting and/or antimicrobial activity)", "values": [
      {"measurement": "Target(s)", "setting": "[1]", "result": "F. nucleatum; also recorded: S. mutans; also recorded: S. oralis; also recorded: S. sanguinis"}
    ]},
    {"substance": "1T-270 (VHEFDIQKILQNR; Peptide with targeting and/or antimicrobial activity)", "values": [
      {"measurement": "Target(s)", "setting": "[1]", "result": "F. nucleatum; also recorded: S. mutans; also recorded: S. oralis; also recorded: S. sanguinis"}
    ]},
    {"substance": "1T-272 (QLAPIDKQLKAVKKIAFYESESTAAKAVTVA; Peptide with targeting and/or antimicrobial activity)", "values": [
      {"measurement": "Target(s)", "setting": "[1]", "result": "F. nucleatum; also recorded: S. mutans; also recorded: S. oralis; also recorded: S. sanguinis"}
    ]},
    {"substance": "1T-273 (YNEPNYKWLESYKIYKQRCEDRTGMYYTEET; Peptide with targeting and/or antimicrobial activity)", "values": [
      {"measurement": "Target(s)", "setting": "[1]", "result": "F. nucleatum; also recorded: P. gingivalis; also recorded: T. denticola; also recorded: S. mitis; also recorded: S. mutans; also recorded: S. oralis"}
    ]},
    {"substance": "1T-274 (ETTTEINAIKLHRIKQRSPQGTRRVN; Peptide with targeting and/or antimicrobial activity)", "values": [
      {"measurement": "Target(s)", "setting": "[1]", "result": "F. nucleatum; also recorded: S. mutans; also recorded: S. oralis; also recorded: S. sanguinis"}
    ]},
    {"substance": "1T-282 (ISLVFPAYT; Peptide with targeting and/or antimicrobial activity)", "values": [
      {"measurement": "Target(s)", "setting": "[1]", "result": "F. nucleatum; also recorded: P. gingivalis; also recorded: S. gordonii; also recorded: S. mitis; also recorded: S. mutans; also recorded: S. oralis; also recorded: S. salivarious; also recorded: S. sanguinis"}
    ]},
    {"substance": "1T-286 (LGFFNNKADLVKADTERDNRMSSLKIKDL; Peptide with targeting and/or antimicrobial activity)", "values": [
      {"measurement": "Target(s)", "setting": "[1]", "result": "S. sanguinis"}
    ]},
    {"substance": "1T-287 (KGYPLPFQYRLNNH; Peptide with targeting and/or antimicrobial activity)", "values": [
      {"measurement": "Target(s)", "setting": "[1]", "result": "P. gingivalis; also recorded: T. denticola; also recorded: S. gordonii; also recorded: S. mitis; also recorded: S. mutans; also recorded: S. oralis; also recorded: S. salivarious; also recorded: S. sanguinis"}
    ]},
    {"substance": "1T-288 (RWVGGEPSADIYLSAKDTKT; Peptide with targeting and/or antimicrobial activity)", "values": [
      {"measurement": "Target(s)", "setting": "[1]", "result": "F. nucleatum; also recorded: S. gordonii; also recorded: S. salivarious; also recorded: S. sanguinis"}
    ]},
    {"substance": "1T-289 (EPSADIYLSAKDTKT; Peptide with targeting and/or antimicrobial activity)", "values": [
      {"measurement": "Target(s)", "setting": "[1]", "result": "F. nucleatum; also recorded: P. gingivalis; also recorded: S. gordonii; also recorded: S. mitis; also recorded: S. mutans; also recorded: S. oralis; also recorded: S. sanguinis"}
    ]},
    {"substance": "1T-291 (DMKIIKLYIKILSFLFIKYCNKKLNSVKLKA; Peptide with targeting and/or antimicrobial activity)", "values": [
      {"measurement": "Target(s)", "setting": "[1]", "result": "A. naeslundii; also recorded: F. nucleatum; also recorded: P. gingivalis; also recorded: T. denticola; also recorded: S. mitis; also recorded: S. mutans; also recorded: S. oralis"}
    ]},
    {"substance": "1T-294 (YDKIADGVFKIGKRGVL; Peptide with targeting and/or antimicrobial activity)", "values": [
      {"measurement": "Target(s)", "setting": "[1]", "result": "T. denticola"}
    ]},
    {"substance": "1T-295 (KYKLKKIIL; Peptide with targeting and/or antimicrobial activity)", "values": [
      {"measurement": "Target(s)", "setting": "[1]", "result": "S. mitis; also recorded: S. salivarious; also recorded: S. sanguinis"}
    ]},
    {"substance": "1T-297 (RSLRLNNALTKLPKLWYNRIKEAFYAYNDYDK; Peptide with targeting and/or antimicrobial activity)", "values": [
      {"measurement": "Target(s)", "setting": "[1]", "result": "A. naeslundii; also recorded: F. nucleatum; also recorded: T. denticola; also recorded: S. mitis; also recorded: S. mutans; also recorded: S. oralis"}
    ]},
    {"substance": "1T-301 (SKLPRVLDASLKL; Peptide with targeting and/or antimicrobial activity)", "values": [
      {"measurement": "Target(s)", "setting": "[1]", "result": "F. nucleatum; also recorded: S. gordonii; also recorded: S. sanguinis"}
    ]},
    {"substance": "1T-304 (STAGEASRRTASEASRRTAAKLRG; Peptide with targeting and/or antimicrobial activity)", "values": [
      {"measurement": "Target(s)", "setting": "[1]", "result": "P. gingivalis"}
    ]},
    {"substance": "AIEGVIKKGACFKLLRHEMF [PF-167]", "values": [
      {"measurement": "Target(s)", "setting": "[2]", "result": "S. epidermidis and E. coli and C. albicans and MRSA and C. jeikeium and C. jejuni"}
    ]},
    {"substance": "CHA0 (D[dOrn]KTAA[dOrn]K; not fully specified (bridges))", "values": [
      {"measurement": "Target(s)", "setting": "[1]", "result": "P. fluorescens"}
    ]},
    {"substance": "DAANEA-GGG [BL-1]", "values": [
      {"measurement": "bacterial binding", "setting": "data not shown", "result": "no bacterial binding"}
    ]},
    {"substance": "HIKETR (Peptide with targeting and/or antimicrobial activity) [PF-222]", "values": [
      {"measurement": "Target(s)", "setting": "[2]", "result": "S. epidermidis"}
    ]},
    {"substance": "MKKLVAALAVIVILTGCVYDPVNYDKIHDQEFQDHLRQNG [PF-252]", "values": [
      {"measurement": "Target(s)", "setting": "[2]", "result": "S. mutans"}
    ]},
    {"substance": "MLTSRKKRLKKIVEEQNKKDESI [PF-336]", "values": [
      {"measurement": "Target(s)", "setting": "[2]", "result": "S. mutans; also recorded: E. coli"}
    ]},
    {"substance": "PEIIKIVSGLL [PF-758]", "values": [
      {"measurement": "Target(s)", "setting": "[2]", "result": "S. epidermidis and M. luteus and E. coli and MRSA and S. pneumoniae and E. faecalis and C. jeikeium"}
    ]},
    {"substance": "PF670 (chain 1 TVIVAPMHSGV; chain 2 TVIVAPMHSGV; Peptide with targeting and/or antimicrobial activity)", "values": [
      {"measurement": "Target(s)", "setting": "[2]", "result": "Mycobacteria spp"}
    ]},
    {"substance": "PF-014 (HPTDNKHN; Peptide with targeting and/or antimicrobial activity)", "values": [
      {"measurement": "Target(s)", "setting": "[1]", "result": "E. coli; also recorded: C. jeikeium"}
    ]},
    {"substance": "PF-016 (RKQYDDLSFNFLY; Peptide with targeting and/or antimicrobial activity)", "values": [
      {"measurement": "Target(s)", "setting": "[1]", "result": "S. epidermidis; also recorded: E. faecalis; also recorded: C. jeikeium"}
    ]},
    {"substance": "PF-018 (YYKTYFKEV; Peptide with targeting and/or antimicrobial activity)", "values": [
      {"measurement": "Target(s)", "setting": "[1]", "result": "E. coli; also recorded: C. jeikeium"}
    ]},
    {"substance": "PF-038 (MAYKDEGKETKFAVKGYKD; Peptide with targeting and/or antimicrobial activity)", "values": [
      {"measurement": "Target(s)", "setting": "[1]", "result": "M. luteus"}
    ]},
    {"substance": "PF-039 (MLEEKNKSL; Peptide with targeting and/or antimicrobial activity)", "values": [
      {"measurement": "Target(s)", "setting": "[1]", "result": "P. mirabilis; also recorded: C. jeikeium"}
    ]},
    {"substance": "PF-044 (KLKKYIHKPD; Peptide with targeting and/or antimicrobial activity)", "values": [
      {"measurement": "Target(s)", "setting": "[1]", "result": "S. epidermidis and M. luteus and MRSA and C. jeikeium"}
    ]},
    {"substance": "PF-047 (NQEPSLQQDKEQKDNKG; Peptide with targeting and/or antimicrobial activity)", "values": [
      {"measurement": "Target(s)", "setting": "[1]", "result": "S. mutans"}
    ]}
  ]
}
